Laboratory results as given in patent US11076597B2, “High stress resistant plant growth regulator and preparation method and use thereof” (SHANGHAI INSTITUTES FOR BIOLOGICAL SCIENCES, CHINESE …, priority 2015, dated 2021).
Entries after “also recorded” stand apart in the source; their conditions may differ.

Tests used:
wheat = assay: Soil drought experiment, wheat; assay type: in vivo; conditions: 100 μM sprayed once every 3 days; 6 days of drought; FIG. 17
Description: (§1) Soybean, cotton and wheat for leaf transpiration experiments were used simultaneously for soil drought experiments, each pot was filled with the same weight of soil to reduce experimental error. All the soybean plants were subjected to a long-day culture at 26° C. 14 days after sowing, watering was stopped and the plants with the consistent growth condition were selected for drought treatment. At the start of the drought, a solution containing 0.1% Tween-20 and 20 μM (+)-ABA/0224/0304 or 0.1% Tween-20 and 0.05% DMSO (control) was sprayed onto the leaf surface once with a spray amount of 4 ml solution/pot. Meanwhile, the position of the pot was changed and re-watered 6 days after the drought, and the photos were taken 1 day after re-watering. The drought experiment of cotton was similar to that of soybeans, watering was stopped 25 days after sowing, the plants with the consistent growth condition were selected for drought treatment. At the start of the drought, a solution containing 0.1% Tween-20 and 20 μM (+)-ABA/0224 or 0.1% Tween-20 and 0.05% DMSO (control) was sprayed onto the leaf surface once with a spray amount of 4 ml solution/pot, and then sprayed once every 3 days. Meanwhile, the position of the pot was changed and re-watered 6 days after the drought, and the photos were taken before re-watering and 1 day after re-watering. […]

cotton = assay: Soil drought experiment, cotton; assay type: in vivo; conditions: 20 μM sprayed once every 3 days; re-watering after 6 days of drought; FIG. 9
Description: as §1

[1] = tested on: PYL receptor triple mutant (pyr1;pyl1;pyl4) seeds; assay: Seed germination, PYL receptor triple mutant; assay type: in vivo, Arabidopsis thaliana; conditions: 1 μM in 1/2 MS solid medium, 6 days after sowing; FIG. 3
Description: (§2) Take the compounds 0428 and 0224 of the present invention as examples. The seeds of Arabidopsis thaliana Col-0 ecotype and PYL receptor triple mutant (pyr1;pyl1;pyl4) were sterilized with NaClO and placed at 4° C. for 3 days of the vernalization, and then sown in ½ MS solid medium containing 1 μM (+)-ABA/0224 compound or 0.05% DMSO (control) or in ½ MS solid medium containing 2 μM (+)-ABA/compound 0428 of the present invention or 0.05% DMSO (control). Two lines of plant were sown simultaneously on each medium of 6 cm diameter, with 15-20 seeds sown for each line and 4 replicates for each compound. Culture medium was placed at 22° C. with long-day culture. The seeds germinated on a solid medium containing 1 μM (+)-ABA/0224 compound were photographed 6 days after sowing, and seeds germinated on solid medium containing 2 μM (+)-ABA/0428 compound were photographed 9 days after sowing.

[2] = tested on: Arabidopsis thaliana Col-0 ecotype seeds; assay: Seed germination, Col-0 ecotype; assay type: in vivo
Description: as §2

soybean GmPYL6 protein = assay: AlphaScreen assay, soybean GmPYL6 with Arabidopsis AtHAB1; assay type: biochemical; conditions: fraction of the EC50 of ABA; FIG. 13
Description: The AlphaScreen kit (available from Perkin Elmer) was used, and the method was as follows: a 10× buffer (50 mM MOPS, pH 7.4, 50 mM NaF, 50 mM CHAPS, 0.1 mg/ml bovine serum albumin) diluted at 1:10, each of 100 nM HAB1 with Biotin tag sequence and PYR1/PYL1/PYL2/PYL7/GmPYL6/OsPYL2 protein with dual tags of 6×His and SUMO sequences, corresponding concentrations of (+)-ABA/0224/0304/0706/0708/0713/0715/0428/NC0F4, and 5 μg/ml donor beads and acceptor beads (available from Perkin Elmer) were contained in 150 μl of experimental system. After incubating for 1.5 hours at room temperature in the dark, it was placed into an Envision Plate Reader (available from Perkin Elmer) under the programmed AlphaScreen procedure for readings.

| EC50 value for soybean GmPYL6 as fraction of that of ABA (soybean GmPYL6 protein) | SMILES | growth after drought (wheat) | growth after drought and re-watering (cotton) | inhibition of seed germination of pyr1;pyl1;pyl4 triple mutant [1] | inhibition of seed germination of Col-0 ([2]; 1 μM in 1/2 MS solid medium, 6 days after sowing, FIG. 3) | inhibition of seed germination of Col-0 ([2]; 2 μM in 1/2 MS solid medium, 9 days after sowing, FIG. 15) |
| --- | --- | --- | --- | --- | --- | --- |
|  | CC1=CC(=O)CC(C)(C)[C@@]1(O)/C=C/C(C)=C\C(=O)O [ABA, Abscisic Acid, reference compound] | significantly better than that in the control group (DMSO); also recorded: remained upright |  |  |  |  |
|  | CCCN1C(=O)OC(C)c2cc(NS(=O)(=O)Cc3c(F)c(F)c(C)c(F)c3F)ccc21 (stereo not shown) [Compound 0224] | significantly better than that in the control group (DMSO); also recorded: remained upright | significantly better than that of the control group (DMSO) or that of the cotton treated with the same concentration of ABA; also recorded: significantly better growth after re-watering than that in the DMSO-sprayed control group and the plants sprayed with the same concentration of ABA | significantly reduced; also recorded: could not inhibit the seed germination of PYR/PYL triple mutant | can inhibit the seed germination of Col-0; also recorded: could inhibit the seed germination of Col-0 ecotype |  |
| about 1/14 | CCCN1C(=O)OCc2cc(NS(=O)(=O)Cc3c(F)c(F)c(C)c(F)c3F)ccc21 [Compound 0428] |  |  |  |  | can inhibit the seed germination of the Col-0; also recorded: could inhibit the seed germination of Col-0 ecotype |
